Results on 18 molecules are retold here after ChEMBL document CHEMBL3822357, “New Atglistatin closely related analogues: Synthesis and structure-activity relationship towards adipose triglyceride lipase inhibition” (Eur J Med Chem, 2016).

As a reminder, the IC50 is the concentration that gives 50% inhibition. Read a high IC50 as weaker potency.

Calls of active or inactive are those of the source. The calls are words filed in the database; no cut-off is given here.

Test [1] has as its target T1, Patatin-like phospholipase domain-containing protein 2 (Mus musculus) (UniProt Q8BJ56).
T1 sequence (whole entry): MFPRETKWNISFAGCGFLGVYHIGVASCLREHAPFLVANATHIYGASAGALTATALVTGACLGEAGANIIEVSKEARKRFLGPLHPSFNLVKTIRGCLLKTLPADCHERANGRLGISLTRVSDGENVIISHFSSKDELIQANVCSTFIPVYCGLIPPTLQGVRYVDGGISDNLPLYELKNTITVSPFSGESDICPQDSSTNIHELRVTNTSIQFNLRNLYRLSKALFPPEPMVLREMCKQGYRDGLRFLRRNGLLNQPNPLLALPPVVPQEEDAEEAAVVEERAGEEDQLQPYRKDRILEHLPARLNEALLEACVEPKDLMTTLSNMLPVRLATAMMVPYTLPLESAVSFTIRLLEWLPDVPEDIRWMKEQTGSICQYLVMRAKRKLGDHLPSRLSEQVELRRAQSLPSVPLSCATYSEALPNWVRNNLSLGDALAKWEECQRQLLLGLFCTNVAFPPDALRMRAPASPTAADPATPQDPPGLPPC
The experiment in a line: Inhibition of ATGL in mouse 3T3L1 cells assessed as inhibition of isoproterenol-stimulated lipolysis by measuring reduction in non-esterified fatty acid release in media at 20 uM preincubated for 4 hrs followed by isoproterenol addition measured after 1 hr by colorimetric assay. The test is classed as cell-based. Conditions: 3T3-L1.

Test [2] concerns the target T1, Patatin-like phospholipase domain-containing protein 2 (Mus musculus). The experiment in a line: Inhibition of ATGL in mouse 3T3L1 cells assessed as inhibition of isoproterenol-stimulated lipolysis by measuring reduction in glycerol release in media at 20 uM preincubated for 4 hrs followed by isoproterenol addition measured after 1 hr by colorimetric assay. The test is classed as cell-based. Conditions: 3T3-L1.

Test [3] has as its target T2, Patatin-like phospholipase domain-containing protein 2 (Homo sapiens, UniProt Q96AD5).
T2 sequence (Q96AD5 whole entry): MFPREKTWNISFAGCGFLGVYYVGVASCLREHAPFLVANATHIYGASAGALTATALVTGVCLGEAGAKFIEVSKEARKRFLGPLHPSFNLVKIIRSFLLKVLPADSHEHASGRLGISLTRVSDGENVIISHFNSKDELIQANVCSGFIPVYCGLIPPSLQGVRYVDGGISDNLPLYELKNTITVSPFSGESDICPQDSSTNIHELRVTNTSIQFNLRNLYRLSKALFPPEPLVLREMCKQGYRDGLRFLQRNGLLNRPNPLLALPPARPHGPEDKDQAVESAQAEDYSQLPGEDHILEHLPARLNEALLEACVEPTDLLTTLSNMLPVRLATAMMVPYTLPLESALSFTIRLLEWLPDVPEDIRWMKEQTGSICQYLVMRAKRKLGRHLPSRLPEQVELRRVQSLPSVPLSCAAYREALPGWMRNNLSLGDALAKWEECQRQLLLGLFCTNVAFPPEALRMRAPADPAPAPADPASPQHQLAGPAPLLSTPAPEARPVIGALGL
The experiment in a line: Inhibition of ATGL (unknown origin) overexpressed in Escherichia coli XL-1 cells using [9,10-3H(N)]triolein as substrate incubated for 60 mins by liquid scintillation counting method.

`CN(C)c1ccc(-c2ccc(N(C)C)cc2)cc1`: the inhibition result in test [1] and in test [2] was “inactive” each time. Take `CN(C)C(=O)Nc1ccc(-c2ccc(NC(=O)N(C)C)cc2)cc1`: the inhibition entry in test [1] and in test [2] was “inactive” throughout. On to `CN(C)C(=O)Nc1cccc(-c2ccccc2)c1`, for which the inhibition entry in test [1] and in test [2] was “Active” in each case. Consider `CN(C)C(=O)Nc1cccc(-c2ccc(N(C)C)cc2)c1`, for which the inhibition result in test [1] is “Active”. Moreover, half-maximal inhibition in test [3] (IC50) was put at 700 nM. Turning to `CN(C)c1cccc(-c2cccc(N(C)C)c2)c1`, the inhibition entry in test [1] and in test [2] was “inactive” in each case.

For the molecule `CN(C)c1cccc(-c2ccccc2)c1`, the inhibition result in test [1] and in test [2] was “inactive” throughout. In the case of `CN(C)c1ccc(-c2ccccc2)cc1`, the inhibition result in test [1] and in test [2] was “inactive” throughout. On to `CN(C)c1ccc(N(C)C)cc1`, for which the inhibition result in test [1] and in test [2] was “inactive” each time. In the case of `CN(C)C(=O)Nc1cccc(-c2cccc(NC(=O)N(C)C)c2)c1`, the inhibition result in test [1] and in test [2] was “inactive” in each case. Consider `CN(C)C(=O)Nc1cccc(-c2cccc(N(C)C)c2)c1`, for which the inhibition entry in test [1] and in test [2] was “inactive” throughout. `CN(C)c1cccc(N(C)C)c1`: the inhibition entry in test [1] and in test [2] was “inactive” in each case.

Turning to `CN(C)C(=O)Nc1ccc(-c2ccc(N)cc2)cc1`, in test [2], the inhibition result was “inactive”. Turning to `CN(C)C(=O)Nc1ccc(-c2ccc(N(C)C)cc2)cc1`, the inhibition entry in test [1] and in test [2] was “inactive” in each case. On to `CN(C)C(=O)Nc1cccc(N(C)C)c1`, for which the inhibition entry in test [1] and in test [2] was “inactive” in each case.

Take `CN(C)C(=O)Nc1ccc(NC(=O)N(C)C)cc1`: the inhibition entry in test [1] and in test [2] was “inactive” each time.

Consider `CN(C)C(=O)Nc1ccc(N(C)C)cc1`, for which, in test [2], the inhibition entry is “inactive”. The same measure, in the same setting: next, `CN(C)C(=O)Nc1ccc(-c2ccccc2)cc1`: “inactive”. On to `CN(C)C(=O)Nc1ccc(-c2cccc(N(C)C)c2)cc1`, for which the inhibition entry in test [1] and in test [2] was “inactive” each time.
